Source: ChEMBL document CHEMBL4043090 (Bioorg Med Chem, 2017)
pIC50: −log10 of the molar value.

Assays:
[1] = Therapeutic index, ratio of TC50 for human MAGI-CCR5 cells to IC50 for HIV-1 Bal infected in MAGI-CCR5 cells
[2] = Cytotoxicity against human PBMC assessed as reduction in cell viability by MTS assay; type: cell-based; settings: read-out: TC50 (the source's name)
[3] = test system: Human immunodeficiency virus 1; assay: Antiviral activity against HIV-1 Bal infected in human MAGI-CCR5 cells assessed as reduction in viral infection after 48 hrs by fluorescence based beta-galactosidase reporter gene assay; type: functional, cell-based; settings: for pIC50 / IC90: Human immunodeficiency virus 1, Bal, MAGI-CCR5, 48 h
[4] = Therapeutic index, ratio of TC50 for human PBMC to IC50 for HIV-1 Bal infected in human PBMC
[5] = Cytotoxicity against human MAGI-CCR5 cells assessed as reduction in cell viability after 48 hrs by MTS assay; type: cell-based; settings: read-out: TC50
PBMC = assay: Antiviral activity against HIV-1 Bal infected in human PBMC by MTS assay; type: functional, cell-based

| Structure (SMILES) | TI [1] | CC50 [2] [µM] | Activity [3] | pIC50 [3] | IC90 [3] [µM] | TI [4] | CC50 at 48 h [5] [µM] | pIC50 (PBMC) | IC90 (PBMC) [µM] |
| --- | --- | --- | --- | --- | --- | --- | --- | --- | --- |
| CC1=C(c2nc(-c3ccc(C#N)cc3)cs2)C(c2ccnc(Cl)c2)NC(=O)N1 (centres undefined) | 31 | > 100 | Dose-dependent effect | 5.49 | > 100 | 23 | > 100 | 5.36 | 44.5 |
| CC1=C(c2nc(-c3cccc(C#N)c3)cs2)C(c2cccc(O)c2)NC(=O)N1 (centres undefined) | 6 | 74 | Dose-dependent effect | 5.06 | 38.1 | 15 | 51.8 | 5.30 | 15.1 |
| COc1ncccc1C1NC(=O)NC(C)=C1c1nc(-c2ccc(C#N)cc2)cs1 (centres undefined) | 26 | > 100 | Dose-dependent effect | 5.42 | 66 | 39 | > 100 | 5.59 | 7.3 |
| CC1=C(c2nc(-c3ccc(C#N)cc3)cs2)C(c2ccncc2F)NC(=O)N1 (centres undefined) | 1.6 |  |  | 4.20 | > 100 |  | > 100 |  |  |
| CC1=C(c2nc(-c3ccc(C#N)cc3)cs2)C(c2ccc(Oc3ccccc3)cc2)NC(=O)N1 (centres undefined) | 83 | > 100 | Dose-dependent effect | 6.92 | 0.62 | 189 | > 10 | 6.28 | 1.8 |
| COc1ccc(C2NC(=O)NC(C)=C2c2nc(-c3ccc(C#N)cc3)cs2)cc1O (centres undefined) | 263 | > 100 | Dose-dependent effect | 6.42 | 37.8 | 667 | > 100 | 6.82 | 0.42 |
| CC1=C(c2nc(-c3ccc(Cl)cc3)cs2)C(c2cccc(O)c2)NC(=O)N1 (centres undefined) | 29 | 65 | Dose-dependent effect | 5.72 | 11 | 50 | 55 | 5.89 | 4.1 |
| CC1=C(c2nc(-c3ccc4ccccc4c3)cs2)C(c2cccc(O)c2)NC(=O)N1 (centres undefined) | 1.3 | 47 | Dose-dependent effect | 4.37 | 84 | 3.6 | 55 | 4.89 | 29 |
| CC1=C(c2nc(-c3ccc(C#N)cc3)cs2)C(c2ccc3ccccc3n2)NC(=O)N1 (centres undefined) | 67 | > 100 | Dose-dependent effect | 5.82 | 12.7 | 77 | > 100 | 5.89 | 5.5 |
| COc1cccc(C2NC(=O)NC(C)=C2c2nc(-c3ccc(C#N)cc3)cs2)n1 (centres undefined) | 63 | > 100 | Dose-dependent effect | 5.80 | 14.4 | 63 | > 100 | 5.80 | 5.9 |
| CC1=C(c2nc(-c3ccc(C#N)cc3)cs2)C(c2cccc(O)c2)NC(=O)N1C (centres undefined) | 42 | > 100 | Dose-dependent effect | 5.62 | 13.8 | 31 | > 100 | 5.49 | 8.5 |
| CC1=C(c2nc(-c3ccc(C)cc3)cs2)C(c2cccc(O)c2)NC(=O)N1 (centres undefined) | 2 | 65 | Dose-dependent effect | 4.51 | 80 | 4.1 | 61 | 4.80 | 48 |
| CC1=C(c2nc(-c3cccc(O)c3)cs2)C(c2cccc(O)c2)NC(=O)N1 (centres undefined) | 1.3 | 55 | Dose-dependent effect | 4.17 | 98 | 1.4 | 89 | 4.40 | 85 |
| CC1=C(c2nc(-c3cccc(C#N)c3)cs2)C(c2ccc(O)cc2)NC(=O)N1 (centres undefined) | 16 | 87.5 | Dose-dependent effect | 5.36 | 40.9 | 27 | 69.6 | 5.48 | 10.2 |
| CC1=C(c2nc(-c3ccc(C#N)cc3)cs2)C(c2cncc(F)c2)NC(=O)N1 (centres undefined) | 143 | > 100 | Dose-dependent effect | 6.15 | > 100 | 189 | > 100 | 6.28 | 1.3 |
| CC1=C(c2nc(-c3ccccc3)cs2)C(c2cccc(O)c2)NC(=O)N1 (centres undefined) | 1.3 | 76 | Dose-dependent effect | 4.10 | > 100 | 2 | > 100 | 4.43 | 81 |

| Structure (SMILES) | TI [1] | CC50 [2] [µM] | Activity [3] | pIC50 [3] | IC90 [3] [µM] | TI [4] | CC50 at 48 h [5] [µM] | pIC50 (PBMC) | IC90 (PBMC) [µM] |
| --- | --- | --- | --- | --- | --- | --- | --- | --- | --- |
| CC1=C(c2nc(-c3ccc(C(F)(F)F)cc3)cs2)C(c2cccc(O)c2)NC(=O)N1 (centres undefined) | 7.7 | 57 | Dose-dependent effect | 5.28 | 23 | 9.7 | 40 | 5.23 | 18 |
| CC1=C(c2nc(-c3cccc(C#N)c3)cs2)C(c2cccc(O)c2)NC(=O)N1C (centres undefined) | 1.8 | 64.2 | Dose-dependent effect | 4.26 | 89.2 | 4.4 | > 100 | 4.84 | 59.6 |
| CC1=C(c2nc(-c3ccc(C#N)cc3)cs2)C(c2ccnc3ccccc23)NC(=O)N1 (centres undefined) | 26 | 68.3 | Dose-dependent effect | 5.42 | 98.3 | 24 | > 100 | 5.54 | 10.5 |
| CC1=C(c2nc(-c3ccc(Br)cc3)cs2)C(c2cccc(O)c2)NC(=O)N1 (centres undefined) | 26 | 56 | Dose-dependent effect | 5.64 | 15 | 16 | 60 | 5.44 | 12 |
| CC1=C(c2nc(-c3ccc(C#N)cc3)cs2)C(c2ccc(Cl)nc2Cl)NC(=O)N1 (centres undefined) | 116 | 99.1 | Dose-dependent effect | 6.07 | 5.8 | 52 | > 100 | 5.72 | 5.7 |
| COc1ccc(-c2csc(C3=C(C)NC(=O)NC3c3cccc(O)c3)n2)cc1 (centres undefined) | 1.5 | 91 | Dose-dependent effect | 4.18 | > 100 | 3 | > 100 | 4.52 | 78 |
| CC1=C(c2nc(-c3ccc(C#N)cc3)cs2)C(c2cc3ccccc3[nH]2)NC(=O)N1 (centres undefined) | 24 | 69.8 | Dose-dependent effect | 5.68 | 10.4 | 20 | 50.5 | 5.46 | 10.8 |
| CC1=C(c2nc(-c3ccc(C#N)cc3)cs2)C(c2cccnc2Cl)NC(=O)N1 (centres undefined) | 46 | > 100 | Dose-dependent effect | 5.66 | 85.5 | 67 | > 100 | 5.82 | 8.8 |
| CC1=C(c2nc(-c3ccc(C#N)cc3)cs2)C(c2cccnc2F)NC(=O)N1 (centres undefined) | 227 | > 100 | Dose-dependent effect | 6.36 | 2.6 | 385 | > 100 | 6.59 | 0.83 |
| COc1cccc(C2NC(=O)NC(C)=C2c2nc(-c3ccc(C#N)cc3)cs2)c1 (centres undefined) | 263 | > 100 | Dose-dependent effect | 6.42 | 1.8 | 179 | > 100 | 6.25 | 1.6 |
| COc1cncc(C2NC(=O)NC(C)=C2c2nc(-c3ccc(C#N)cc3)cs2)c1 (centres undefined) | 9.6 |  |  | 4.98 | > 100 |  | > 100 |  |  |
| CC1=C(c2nc(-c3ccc(C#N)cc3)cs2)C(c2ccc(OC(F)(F)F)cc2)NC(=O)N1 (centres undefined) | 63 | > 100 | Dose-dependent effect | 5.80 | 7.6 | 12 | > 100 | 5.07 | 21 |
| CC1=C(c2nc(-c3cccs3)cs2)C(c2cccc(O)c2)NC(=O)N1 (centres undefined) | 2 |  |  | 4.31 | > 100 |  | > 100 |  |  |
| CC1=C(c2nc(-c3ccc(C#N)cc3)cs2)C(c2ccc(Oc3ccccc3)nc2)NC(=O)N1 (centres undefined) | 156 | 67.5 | Dose-dependent effect | 6.19 | 2.8 | 56 | > 100 | 5.92 | 3.4 |
| CC1=C(c2nc(-c3ccc(C#N)cc3)cs2)C(c2ccc(OCc3ccccc3)cc2)NC(=O)N1 (centres undefined) | 77 | > 100 | Dose-dependent effect | 6.89 | 0.75 | 476 | > 10 | 6.68 | 0.6 |
